The target of the test is T1, NS5B from the BK strain (genotype 1b) (Hepatitis C virus genotype 1b, UniProt P26663).
T1 construct: NS5B from the BK strain (genotype 1b) is expressed in E. coli as a protein in which the 21 C-terminal amino acids are replaced; made in house; host or cells: E. coli
The experiment in a line: Hepatitis C polymerase inhibition, NS5B BK strain, 33P-GTP filter assay. The settings on record: Table 1A; for IC50: NS5B BK strain, read-out: HCV pol BK IC50; for inhibition at 20 µM: read-out: HCV pol % inh at 20 μM. The format is biochemical. In short, it runs like this: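 Radiolabelled RNA synthesis was measured by filter capture and scintillation counting after EDTA stop. His-tagged, C-terminally truncated (Δ21) genotype 1b BK NS5B from E. coli, pre-exposed to compound for 15 min, copied a self-primed RNA template (~3 nM) with α-[33P]-GTP for 2 h at room temperature.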

The values below come from patent US7217730B2, “Method for the use of pyranoindole derivatives to treat infection with Hepatitis C virus” (Wyeth, priority 2002, dated 2007).

T1 sequence (P26663 2420-2989): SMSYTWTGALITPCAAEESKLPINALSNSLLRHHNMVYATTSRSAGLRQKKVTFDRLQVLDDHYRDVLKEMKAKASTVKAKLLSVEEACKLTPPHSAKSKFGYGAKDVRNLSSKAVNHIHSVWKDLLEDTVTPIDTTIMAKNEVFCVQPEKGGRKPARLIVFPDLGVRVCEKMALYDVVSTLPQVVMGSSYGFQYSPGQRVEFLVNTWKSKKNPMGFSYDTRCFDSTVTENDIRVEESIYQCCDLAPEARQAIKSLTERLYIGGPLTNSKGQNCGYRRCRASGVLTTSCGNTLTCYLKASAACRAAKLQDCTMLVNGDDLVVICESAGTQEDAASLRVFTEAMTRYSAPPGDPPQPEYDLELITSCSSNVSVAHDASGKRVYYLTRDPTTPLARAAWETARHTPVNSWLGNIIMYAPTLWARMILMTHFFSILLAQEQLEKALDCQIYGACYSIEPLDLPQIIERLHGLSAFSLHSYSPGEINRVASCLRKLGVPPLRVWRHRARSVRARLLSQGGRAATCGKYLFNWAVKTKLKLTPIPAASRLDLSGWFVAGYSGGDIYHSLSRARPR

Usually IC50 stands for the concentration that inhibits the measured activity by half. For the compound `CCCC1(CC(=O)O)OCCc2c1[nH]c1c(C)ccc(C(N)=O)c21` (stereo not shown) [Example 226, (5-carbamoyl-8-Methyl-1-propyl-1,3,4,9-tetrahydropyrano[3,4-b]indol-1-yl)acetic acid], the IC50 is > 20 µM.
For the compound `CCC1(CC(=O)O)OCCc2c1[nH]c1c(Br)cccc21` (stereo not shown) [Example 81, (8-bromo-1-ethyl-1,3,4,9-tetrahydropyrano[3,4-b]indol-1-yl)acetic acid], the IC50 was > 20 µM. The inhibition at 20 µM (20 μM compound) was found to be 27%.
With `CCC[C@@]1(CC(=O)O)OCCc2c1[nH]c1c(C)cc(F)c(C#N)c21` [Example 12, [(S)-5-cyano-6-fluoro-8-methyl-1-propyl-1,3,4,9-tetrahydropyrano[3,4-b]indol-1-yl]acetic acid], the IC50 came to 0.6 µM.
In the case of `CCCCC1(CC(=O)O)OCCc2c1[nH]c1c(F)cc(C)c(C#N)c21` (stereo not shown) [Example 170, (1-butyl-5-cyano-8-fluoro-6-methyl-1,3,4,9-tetrahydropyrano[3,4-b]indol-1-yl)acetic acid], the IC50 was 1 µM. The inhibition at 20 µM (20 μM compound) is 53%.
For `CC(C)C1(CC(=O)O)OCCc2c1[nH]c1c(Cl)cc(Cl)c(Cl)c21` (stereo not shown) [Example 157, (5,6,8-trichloro-1-isopropyl-1,3,4,9-tetrahydropyrano[3,4-b]indol-1-yl)acetic acid], in that order: 0.6 µM and 89%.
Regarding `O=C(O)CC1(c2cccc([N+](=O)[O-])c2)OCCc2c1[nH]c1cccc(Cl)c21` (stereo not shown) [Example 19, [5-chloro-1-(3-nitrophenyl)-1,3,4,9-tetrahydropyrano[3,4-b]indol-1-yl]acetic acid], the concentration for half-maximal inhibition (IC50) was > 20 µM. Where the note is “20 μM compound”, the inhibition at 20 µM was 6%.
As to `CCCC1(CC(=O)O)OCCc2c1n(Cc1ccccc1)c1c(Cl)ccc(Cl)c21` (stereo not shown) [Example 234, (9-benzyl-5,8-dichloro-1-propyl-1,3,4,9-tetrahydropyrano[3,4-b]indol-1-yl)acetic acid], the IC50 amounted to 13 µM.
For the compound `CCCC1(CC(=O)O)OCCc2c1[nH]c1c(-c3ccccc3)cccc21` (stereo not shown) [Example 89, (8-phenyl-1-propyl-1,3,4,9-tetrahydropyrano[3,4-b]indol-1-yl)acetic acid], the IC50 was > 20 µM. For the setting “20 μM compound”, the inhibition at 20 µM is 36%.
On to `CCCC1(CC(=O)O)OCCc2c1[nH]c1c(Cl)cc(Cl)cc21` (stereo not shown) [Example 101, (6,8-dichloro-1-propyl-1,3,4,9-tetrahydropyrano[3,4-b]indol-1-yl)acetic acid], for which the IC50 was 1.5 µM. Further, under “20 μM compound”, the inhibition at 20 µM came to 89%.
Taken in the same sequence, the figures for `CCCC1(CC(=O)O)OCCc2c1[nH]c1c(-c3cccc(N)c3)cccc21` (stereo not shown) [Example 97, [8-(3-aminophenyl)-1-propyl-1,3,4,9-tetrahydropyrano[3,4-b]indol-1-yl]acetic acid] were > 20 µM and 21%.
In the case of `O=C(O)CC1(c2ccccc2F)OCCc2c1[nH]c1cccc(Cl)c21` (stereo not shown) [Example 20, [5-chloro-1-(2-fluorophenyl)-1,3,4,9-tetrahydropyrano[3,4-b]indol-1-yl]acetic acid], the concentration for half-maximal inhibition (IC50) is > 20 µM. For the same compound, where the note is “20 μM compound”, the inhibition at 20 µM stood at 21%.
On to `CC(C)C1(CC(=O)O)OCCc2c1[nH]c1cccc(Br)c21` (stereo not shown) [Example 23, (5-bromo-1-isopropyl-1,3,4,9-tetrahydropyrano[3,4-b]indol-1-yl)acetic acid], for which the IC50 was > 20 µM. The inhibition at 20 µM (20 μM compound) amounted to 12%.
For `Cc1cc(F)c2[nH]c3c(c2c1C#N)CCOC3(CC(=O)O)c1ccccc1` (stereo not shown) [Example 171, (5-cyano-8-fluoro-6-methyl-1-phenyl-1,3,4,9-tetrahydropyrano[3,4-b]indol-1-yl)acetic acid], in that order: > 10 µM and 3%.
Taken in the same sequence, the figures for `COc1cc(C2(CC(=O)O)OCCc3c2[nH]c2cccc(Br)c32)cc(OC)c1OC` (stereo not shown) [Example 27, [5-bromo-1-(3,4,5-trimethoxyphenyl)-1,3,4,9-tetrahydropyrano[3,4-b]indol-1-yl]acetic acid] were > 20 µM and 3%.
Taken in the same sequence, the figures for `CCCCC1(CC(=O)O)OCCc2c1[nH]c1c(F)cc(F)c(C#N)c21` (stereo not shown) [Example 196, (1-butyl-5-cyano-6,8-difluoro-1,3,4,9-tetrahydropyrano[3,4-b]indol-1-yl)acetic acid] were 1.2 µM and 77%.
As for `CCCC1(CC(=O)O)OCCc2c1[nH]c1cccc(-c3ccc(C(F)(F)F)cc3)c21` (stereo not shown) [Example 36, {1-propyl-5-[4-(trifluoromethyl)phenyl]-1,3,4,9-tetrahydropyrano[3,4-b]indol-1-yl}acetic acid], the IC50 is > 20 µM. Further, the inhibition at 20 µM (20 μM compound) came to 4%.
Taken in the same sequence, the figures for `N#Cc1cccc2[nH]c3c(c12)CCOC3(CC(=O)O)c1cccc([N+](=O)[O-])c1` (stereo not shown) [Example 65, [5-cyano-1-(3-nitrophenyl)-1,3,4,9-tetrahydropyrano[3,4-b]indol-1-yl]acetic acid] were > 20 µM and 27%.
With `O=C(O)CC1(c2ccc(C(=O)O)cc2)OCCc2c1[nH]c1c(Cl)cc(Cl)c(Cl)c21` (stereo not shown) [Example 161, 4-[1-(carboxymethyl)-5,6,8-trichloro-1,3,4,9-tetrahydropyrano[3,4-b]indol-1-yl]benzoic acid], the IC50 came out at 0.3 µM. Under “20 μM compound”, the inhibition at 20 µM stood at 74%.
For `O=C(O)CC1(c2ccoc2)OCCc2c1[nH]c1c(F)cc(F)c(Br)c21` (stereo not shown) [Example 192, [5-bromo-6,8-difluoro-1-(3-furyl)-1,3,4,9-tetrahydropyrano[3,4-b]indol-1-yl]acetic acid], in that order: > 5 µM and 74%.
Taken in the same sequence, the figures for `CCCC1(CC(=O)O)OCCc2c1[nH]c1c(F)ccc(F)c21` (stereo not shown) [Example 124, (5,8-difluoro-1-propyl-1,3,4,9-tetrahydro-pyrano[3,4-b]indol-1-yl)acetic acid] were 6.7 µM and 61%.
In the case of `CCCC1(CC(=O)O)OCCc2c1[nH]c1cccc(Br)c21` (stereo not shown) [Example 22, (5-bromo-1-propyl-1,3,4,9-tetrahydropyrano[3,4-b]indol-1-yl)acetic acid], the inhibition at 20 µM (20 μM compound) is 70%.
Regarding `CCCC1(CC(=O)O)OCCc2c1[nH]c1c(Cl)cc(C)c(Br)c21` (stereo not shown) [Example 175, (5-bromo-8-chloro-6-methyl-1-propyl-1,3,4,9-tetrahydropyrano[3,4-b]indol-1-yl)acetic acid], the IC50 was 0.5 µM. Also, the inhibition at 20 µM (20 μM compound) came to 84%.
Turning to “(5-bromo-8-fluoro-1,6-dimethyl-1,3,4,9-tetrahydropyrano[3,4-b]indol-1-yl)acetic acid [Example 163]”, the 50% inhibitory concentration (IC50) is > 10 µM. For the same compound, the “HCV pol % inh at 20 μM” value (20 μM compound) was 28%.
On to `CCCC1(CC(=O)O)OCCc2c1[nH]c1cccc(-c3cccc(Cl)c3)c21` (stereo not shown) [Example 49, [5-(3-chlorophenyl)-1-propyl-1,3,4,9-tetrahydropyrano[3,4-b]indol-1-yl]acetic acid], for which the IC50 was > 20 µM. For the same compound, the inhibition at 20 µM (20 μM compound) is < 5%.
Taken in the same sequence, the figures for `CCC1(CC(=O)O)OCCc2c1[nH]c1c(C)cc(F)c(Br)c21` (stereo not shown) [Example 200, (5-bromo-1-ethyl-6-fluoro-8-methyl-1,3,4,9-tetrahydropyrano[3,4-b]indol-1-yl)acetic acid] were 2.1 µM and 83%.
Taken in the same sequence, the figures for `CCCC1(CC(=O)O)OCCc2c1[nH]c1c(C(F)(F)F)cccc21` (stereo not shown) [Example 117, [1-propyl-8-(trifluoromethyl)-1,3,4,9-tetrahydropyrano[3,4-b]indol-1-yl]acetic acid] were 9.6 µM and 39%.
Consider `CCC1(CC(=O)O)OCCc2c1[nH]c1c(F)ccc(F)c21` (stereo not shown) [Example 123, (1-ethyl-5,8-difluoro-1,3,4,9-tetrahydro-pyrano[3,4-b]indol-1-yl)acetic acid], for which the concentration for half-maximal inhibition (IC50) was > 20 µM. Moreover, the inhibition at 20 µM (20 μM compound) turned out to be 51%.
Taken in the same sequence, the figures for `O=C(O)CC1(c2cccc([N+](=O)[O-])c2)OCCc2c1[nH]c1cccc(Br)c21` (stereo not shown) [Example 29, [5-bromo-1-(3-nitrophenyl)-1,3,4,9-tetrahydropyrano[3,4-b]indol-1-yl]acetic acid] were > 20 µM and < 5%.
As to `CCCC1(CC(=O)O)OCC(C)c2c1[nH]c1c(Cl)ccc(Cl)c21` (stereo not shown) [Example 229, (5,8-dichloro-4-methyl-1-propyl-1,3,4,9-tetrahydropyrano[3,4-b]indol-1-yl)acetic acid], the IC50 was 7 µM.
Turning to `Cc1cc(Cl)c2[nH]c3c(c2c1Br)CCOC3(C)CC(=O)O` (stereo not shown) [Example 173, (5-bromo-8-chloro-1,6-dimethyl-1,3,4,9-tetrahydropyrano[3,4-b]indol-1-yl)acetic acid], the IC50 is > 5 µM. In addition, the inhibition at 20 µM (20 μM compound) worked out at 19%.
For `CC1(CC(=O)O)OCCc2c1[nH]c1c(Cl)cc(Cl)c(Cl)c21` (stereo not shown) [Example 154, (5,6,8-trichloro-1-methyl-1,3,4,9-tetrahydropyrano[3,4-b]indol-1-yl)acetic acid], in that order: 22.4 µM and 22%.
Taken in the same sequence, the figures for `CCC1(CC(=O)O)OCCc2c1[nH]c1c(Cl)cc(Cl)cc21` (stereo not shown) [Example 100, (6,8-dichloro-1-ethyl-1,3,4,9-tetrahydropyrano[3,4-b]indol-1-yl)acetic acid] were > 20 µM and 54%.
Taken in the same sequence, the figures for `CC(C)C1(CC(=O)O)OCCc2c1[nH]c1c(F)ccc(F)c21` (stereo not shown) [Example 125, (5,8-difluoro-1-isopropyl-1,3,4,9-tetrahydropyrano[3,4-b]indol-1-yl)acetic acid] were > 20 µM and 73%.
